Holding throughout (format): biochemical
The target of one experiment is VIM-2 (Escherichia coli, UniProt Q5U7L7). Kind of experiment: MBL inhibition, FC-5 fluorescence assay, VIM-2. The procedure: (§1) Inhibitors were tested using a panel of the clinically relevant B1 MBLs (NDM-1, VIM-1, -2 and IMP-1). Activities were assayed by monitoring the release of a fluorophore following the enzymatic breakdown of the cephalosporin FC-5 (https://pubs.acs.org/doi/abs/10.1021/jm400769b). FC-5 assays were conducted in clear bottomed 384 black well microplates (Greiner); the initial rate of reaction was assessed by monitoring the fluorescence intensity (λex=380 nm and λem=460 nm) using a Pherstar FS (BMG LabTech) plate reader. Initial rates of reaction were determined and dose-response analyses conducted in GraphPad Prism. Dose-response curves were fitted using the log(inhibitor) vs normalized response—variable slope model of GraphPad Prism 12. Each concentration point for routine screening was conducted with 4 intra-plate replicates.

For a further experiment, the target named is IMP-1 (Serratia marcescens, UniProt P52699). Kind of experiment: MBL inhibition, FC-5 fluorescence assay, IMP-1. How it is done: as §1
The target of a further experiment is VIM-1 (Pseudomonas aeruginosa, UniProt A0A0F7KYQ8). Kind of experiment: MBL inhibition, FC-5 fluorescence assay, VIM-1. How it is done:
as §1

The target in another experiment is NDM-1 (Klebsiella pneumoniae, UniProt C7C422). Kind of experiment: MBL inhibition, FC-5 fluorescence assay, NDM-1. The procedure:
as §1

The mark [1] stands for this setting: FC-5 cephalosporin substrate, ranges of obtained pIC50, read-out: pIC50 VIM-2 (converted).
[2] abbreviates: FC-5 cephalosporin substrate, fluorescence, ranges of obtained pIC50, read-out: pIC50 IMP-1 (converted).
Setting [3] is: FC-5 cephalosporin substrate, ranges of obtained pIC50, read-out: pIC50 VIM-1 (converted).
[4] abbreviates: FC-5 cephalosporin substrate, fluorescence, ranges of obtained pIC50, read-out: pIC50 NDM-1 (converted).

Molecules are shown by their SMILES. Like-named read-outs stand apart in the source and are kept apart here.

Sequence of NDM-1 (C7C422 29-270, looked up, species assumed): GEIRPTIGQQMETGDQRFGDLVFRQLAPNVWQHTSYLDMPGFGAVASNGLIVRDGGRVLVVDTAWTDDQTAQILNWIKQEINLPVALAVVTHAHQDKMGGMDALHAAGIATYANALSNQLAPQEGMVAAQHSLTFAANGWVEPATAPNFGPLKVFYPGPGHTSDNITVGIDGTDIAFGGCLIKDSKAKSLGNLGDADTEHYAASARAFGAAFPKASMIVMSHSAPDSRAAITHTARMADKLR
Sequence of IMP-1 (P52699 19-246, looked up, species assumed): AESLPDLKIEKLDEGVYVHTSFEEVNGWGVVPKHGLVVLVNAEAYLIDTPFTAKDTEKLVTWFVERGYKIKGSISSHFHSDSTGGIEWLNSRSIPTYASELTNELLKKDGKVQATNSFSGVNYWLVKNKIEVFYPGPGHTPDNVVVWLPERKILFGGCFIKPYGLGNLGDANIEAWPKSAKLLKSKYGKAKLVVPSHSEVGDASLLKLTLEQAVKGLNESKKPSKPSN

As to `CC(NC(=O)C[C@H]1CC[C@H](N)CC1)c1cccc2c(-c3ccc(CS(C)(=O)=O)c(F)c3)c(C(=O)O)[nH]c12` (mixture of isomers) [IC-100, 7-[1-[[2-(4-Aminocyclohexyl)acetyl]amino]ethyl]-3-[3-fluoro-4-(methylsulfonylmethyl)phenyl]-1H-indole-2-carboxylic acid], the IC50 at VIM-2 (setting [1]) was 0.1 to 1 nM; on IMP-1 (setting [2]), over 10 nM; on VIM-1 (setting [3]), over 10 nM; on NDM-1 (setting [4]), over 10 nM.
For `CC(CC(=O)NCCc1c[nH]cn1)c1cccc2c(-c3ccc(CS(C)(=O)=O)c(F)c3)c(C(=O)O)[nH]c12` (racemic) [IC-104, 3-[3-Fluoro-4-(methanesulfonylmethyl)phenyl]-7-(1-{[2-(1H-imidazol-4-yl)ethyl]carbamoy}propan-2-yl)-1H-indole-2-carboxylic acid], the IC50 is over 10 nM on VIM-2 (setting [1]), over 10 nM on IMP-1 (setting [2]), over 10 nM on VIM-1 (setting [3]) and 1 to 10 nM at NDM-1 (setting [4]).
Regarding `CC(c1cccc2c(-c3ccc(CS(C)(=O)=O)c(F)c3)c(C(=O)O)[nH]c12)N1CC(CCCN)OC1=O` (single isomer, unassigned) [IC-83, 7-(1-(5-(3-Aminopropyl)-2-oxooxazolidin-3-yl)ethyl)-3-(3-fluoro-4-((methylsulfonyl)methyl)phenyl)-1H-indole-2-carboxylic acid], the IC50 on VIM-2 (setting [1]) and at VIM-1 (setting [3]) was 1 to 10 nM each time.
Consider `CC(c1cccc2c(-c3ccc(CS(C)(=O)=O)c(F)c3)c(C(=O)O)[nH]c12)N1CC(CCCN)OC1=O` (single isomer, unassigned) [IC-84, 7-(1-(5-(3-Aminopropyl)-2-oxooxazolidin-3-yl)ethyl)-3-(3-fluoro-4-((methylsulfonyl)methyl)phenyl)-1H-indole-2-carboxylic acid], for which the IC50 is 0.1 to 1 nM on VIM-2 (setting [1]), over 10 nM on IMP-1 (setting [2]), 0.1 to 1 nM on VIM-1 (setting [3]) and 0.1 to 1 nM at NDM-1 (setting [4]).
On to `CC(NS(=O)(=O)c1ccccc1)c1cccc2c(-c3cc(Cl)cc(Cl)c3)c(C(=O)O)[nH]c12` (stereo not drawn) [IC-1, 3-(3,5-Dichlorophenyl)-7-(1-(phenylsulfonamido)ethyl)-1H-indole-2-carboxylic acid], for which the IC50 at VIM-2 (setting [1]), at IMP-1 (setting [2]), on VIM-1 (setting [3]) and on NDM-1 (setting [4]) was over 10 nM in each case.
In the case of `CC(c1cnn(C)c1)c1cccc2c(-c3ccc(CS(C)(=O)=O)c(F)c3)c(C(=O)O)[nH]c12` (stereo not drawn) [IC-3, 3-(3-Fluoro-4-((methylsulfonyl)methyl)phenyl)-7-(1-(1-methyl-1H-pyrazol-4-yl)ethyl)-1H-indole-2-carboxylic acid], the IC50 on VIM-2 (setting [1]) was 1 to 10 nM; on IMP-1 (setting [2]) it was over 10 nM; at VIM-1 (setting [3]) it was over 10 nM; at NDM-1 (setting [4]), 1 to 10 nM.
For `CC(c1cccs1)c1cccc2c(-c3ccc(CS(C)(=O)=O)c(F)c3)c(C(=O)O)[nH]c12` (stereo not drawn) [IC-4, 3-(3-Fluoro-4-((methylsulfonyl)methyl)phenyl)-7-(1-(thiophen-2-yl)ethyl)-1H-indole-2-carboxylic acid], the IC50 on VIM-2 (setting [1]), at IMP-1 (setting [2]), on VIM-1 (setting [3]) and at NDM-1 (setting [4]) was 1 to 10 nM throughout.
For the compound `CC(c1cnn(CCCN)c1)c1cccc2c(-c3ccc(CS(C)(=O)=O)c(F)c3)c(C(=O)O)[nH]c12` (stereo not drawn) [IC-5, 7-(1-(1-(3-Aminopropyl)-1H-pyrazol-4-yl)ethyl)-3-(3-fluoro-4-((methylsulfonyl)methyl)phenyl)-1H-indole-2-carboxylic acid], the IC50 is under 0.1 nM at VIM-2 (setting [1]), over 10 nM on IMP-1 (setting [2]), 1 to 10 nM on VIM-1 (setting [3]) and 0.1 to 1 nM at NDM-1 (setting [4]).
The matching figures for `CC(c1cnc(Cl)s1)c1cccc2c(-c3ccc(CS(C)(=O)=O)c(F)c3)c(C(=O)O)[nH]c12` (stereo not drawn) [IC-7, 7-(1-(2-Chlorothiazol-5-yl)ethyl)-3-(3-fluoro-4-((methylsulfonyl)methyl)phenyl)-1H-indole-2-carboxylic acid]: 1 to 10 nM, 1 to 10 nM, 1 to 10 nM and 0.1 to 1 nM.
On the same counts, the results for `CC(c1nn[nH]n1)c1cccc2c(-c3ccc(CS(C)(=O)=O)c(F)c3)c(C(=O)O)[nH]c12` (stereo not drawn) [IC-9, 7-(1-(2H-Tetrazol-5-yl)ethyl)-3-(3-fluoro-4-((methylsulfonyl)methyl)phenyl)-1H-indole-2-carboxylic acid] are over 10 nM, over 10 nM, over 10 nM and over 10 nM.
The matching figures for `CC(c1cccc2c(-c3ccc(CS(C)(=O)=O)c(Cl)c3)c(C(=O)O)[nH]c12)n1cc(CCCN)nn1` (stereo not drawn) [IC-10, 7-[1-[4-(3-Aminopropyl)triazol-1-yl]ethyl]-3-[3-chloro-4-(methylsulfonylmethyl)phenyl]-1H-indole-2-carboxylic acid]: under 0.1 nM, over 10 nM, over 10 nM and 0.1 to 1 nM.
Regarding `CC(c1cccc2c(-c3ccc(CS(C)(=O)=O)c(F)c3)c(C(=O)O)[nH]c12)N1CCNCC1` (stereo not drawn) [IC-12, 3-(3-Fluoro-4-((methylsulfonyl)methyl)phenyl)-7-(1-(piperazin-1-yl)ethyl)-1H-indole-2-carboxylic acid], the IC50 is 1 to 10 nM against VIM-2 (pIC50 VIM-2, FC-5 cephalosporin substrate, ranges of obtained pIC50); over 10 nM against IMP-1; over 10 nM at VIM-1 (pIC50 VIM-1, FC-5 cephalosporin substrate, ranges of obtained pIC50); over 10 nM on NDM-1.
On to `C[C@@H](c1cccc2cc(C(=O)O)[nH]c12)N1C[C@]2(C[C@@H](CN)C2)OC1=O` [IC-30], for which the IC50 on VIM-2 (setting [1]), at IMP-1 (setting [2]), on VIM-1 (setting [3]) and at NDM-1 (setting [4]) was over 10 nM each time.
As to `C[C@@H](c1cccc2c(-c3cc(O)nc(O)c3)c(C(=O)O)[nH]c12)N1C[C@]2(C[C@@H](CN)C2)OC1=O` [IC-31, 3-(2,6-dihydroxypyridin-4-yl)-7-[(1S)-1-[(2r,4r)-2-(aminomethyl)-6-oxo-5-oxa-7-azaspiro[3.4]octan-7-yl]ethyl]-1H-indole-2-carboxylic acid], the IC50 was 1 to 10 nM on VIM-2 (setting [1]), over 10 nM on IMP-1 (setting [2]), over 10 nM at VIM-1 (setting [3]) and 1 to 10 nM at NDM-1 (setting [4]).
In the case of `C[C@@H](c1cccc2c(N3CCS(=O)(=O)CC3)c(C(=O)O)[nH]c12)N1C[C@]2(C[C@@H](CN)C2)OC1=O` [IC-40, 7-((S)-1-((2S,4r)-2-(aminomethyl)-6-oxo-5-oxa-7-azaspiro[3.4]octan-7-yl)ethyl)-3-(1,1-dioxidothiomorpholino)-1H-indole-2-carboxylic acid], the IC50 is over 10 nM at VIM-2 (setting [1]), 1 to 10 nM at IMP-1 (setting [2]), over 10 nM on VIM-1 (setting [3]) and over 10 nM on NDM-1 (setting [4]).
Regarding `C[C@@H](c1cccc2c(-c3ccc4c(c3)CC(=O)N4)c(C(=O)O)[nH]c12)N1C[C@]2(C[C@@H](CN)C2)OC1=O` [IC-41, 7-((S)-1-((2S,4r)-2-(aminomethyl)-6-oxo-5-oxa-7-azaspiro[3.4]octan-7-yl)ethyl)-3-(2-oxoindolin-5-yl)-1H-indole-2-carboxylic acid], the IC50 on VIM-2 (setting [1]) is 1 to 10 nM; on IMP-1 (setting [2]) it was over 10 nM; at VIM-1 (setting [3]) it was 1 to 10 nM; on NDM-1 (setting [4]), 0.1 to 1 nM.
For `C[C@@H](c1cccc2c(-c3cnc(N)nc3)c(C(=O)O)[nH]c12)N1C[C@]2(C[C@@H](CN)C2)OC1=O` [IC-42, 7-((S)-1-((2S,4r)-2-(aminomethyl)-6-oxo-5-oxa-7-azaspiro[3.4]octan-7-yl)ethyl)-3-(2-aminopyrimidin-5-yl)-1H-indole-2-carboxylic acid], the IC50 on VIM-2 (setting [1]) is 0.1 to 1 nM; at IMP-1 (setting [2]), over 10 nM; on VIM-1 (setting [3]), 1 to 10 nM; on NDM-1 (setting [4]), 0.1 to 1 nM.
As to `C[C@@H](c1cccc2c(-c3cn[nH]c3)c(C(=O)O)[nH]c12)N1C[C@]2(C[C@@H](CN)C2)OC1=O` [IC-43, 7-((S)-1-((2S,4r)-2-(aminomethyl)-6-oxo-5-oxa-7-azaspiro[3.4]octan-7-yl)ethyl)-3-(1H-pyrazol-4-yl)-1H-indole-2-carboxylic acid], the IC50 is 1 to 10 nM on VIM-2 (setting [1]), over 10 nM at IMP-1 (setting [2]), over 10 nM at VIM-1 (setting [3]) and 0.1 to 1 nM at NDM-1 (setting [4]).
On to `CC(c1noc(C2CNC(=O)C2)n1)c1cccc2c(-c3ccc(CS(C)(=O)=O)c(F)c3)c(C(=O)O)[nH]c12` (stereo not drawn) [IC-63, 3-[3-Fluoro-4-(methylsulfonylmethyl)phenyl]-7-[1-[5-(5-oxopyrrolidin-3-yl)-1,2,4-oxadiazol-3-yl]ethyl]-1H-indole-2-carboxylic acid], for which the IC50 on VIM-2 (setting [1]) was under 0.1 nM; on IMP-1 (setting [2]), over 10 nM; on VIM-1 (setting [3]), over 10 nM; at NDM-1 (setting [4]), 1 to 10 nM.
`CC(c1cccc2c(-c3ccc(CS(C)(=O)=O)c(F)c3)c(C(=O)O)[nH]c12)n1cc(CCCN)[nH]c1=O` (stereo not drawn) [IC-64, 7-[1-[5-(3-Aminopropyl)-2-oxo-1H-imidazol-3-yl]ethyl]-3-[3-fluoro-4-(methylsulfonylmethyl)phenyl]-1H-indole-2-carboxylic acid]: the IC50 on VIM-2 (setting [1]) was 1 to 10 nM; on IMP-1 (setting [2]), over 10 nM; on VIM-1 (setting [3]), over 10 nM; on NDM-1 (setting [4]), 1 to 10 nM.

These data come from patent publication US20240246913A1, “2-CARBOXYL-INDOLE INHIBITORS OF METALLO-BETA-LACTAMASES” (Oxford University Innovation Limited, priority 2021, published 2024).
